This note sets out measurements from US20250352550A1, “SUBSTITUTED FUROPYRIDINES FOR THERAPEUTIC USE” (MASARYKOVA UNIVERZITA, priority 2022, published 2025).

Format in all cases: biochemical
For one assay, the target named is T1, FLT3 (Homo sapiens, UniProt P36888).
T1 construct: purchased Reaction Biology
T1 sequence (P36888 27-993): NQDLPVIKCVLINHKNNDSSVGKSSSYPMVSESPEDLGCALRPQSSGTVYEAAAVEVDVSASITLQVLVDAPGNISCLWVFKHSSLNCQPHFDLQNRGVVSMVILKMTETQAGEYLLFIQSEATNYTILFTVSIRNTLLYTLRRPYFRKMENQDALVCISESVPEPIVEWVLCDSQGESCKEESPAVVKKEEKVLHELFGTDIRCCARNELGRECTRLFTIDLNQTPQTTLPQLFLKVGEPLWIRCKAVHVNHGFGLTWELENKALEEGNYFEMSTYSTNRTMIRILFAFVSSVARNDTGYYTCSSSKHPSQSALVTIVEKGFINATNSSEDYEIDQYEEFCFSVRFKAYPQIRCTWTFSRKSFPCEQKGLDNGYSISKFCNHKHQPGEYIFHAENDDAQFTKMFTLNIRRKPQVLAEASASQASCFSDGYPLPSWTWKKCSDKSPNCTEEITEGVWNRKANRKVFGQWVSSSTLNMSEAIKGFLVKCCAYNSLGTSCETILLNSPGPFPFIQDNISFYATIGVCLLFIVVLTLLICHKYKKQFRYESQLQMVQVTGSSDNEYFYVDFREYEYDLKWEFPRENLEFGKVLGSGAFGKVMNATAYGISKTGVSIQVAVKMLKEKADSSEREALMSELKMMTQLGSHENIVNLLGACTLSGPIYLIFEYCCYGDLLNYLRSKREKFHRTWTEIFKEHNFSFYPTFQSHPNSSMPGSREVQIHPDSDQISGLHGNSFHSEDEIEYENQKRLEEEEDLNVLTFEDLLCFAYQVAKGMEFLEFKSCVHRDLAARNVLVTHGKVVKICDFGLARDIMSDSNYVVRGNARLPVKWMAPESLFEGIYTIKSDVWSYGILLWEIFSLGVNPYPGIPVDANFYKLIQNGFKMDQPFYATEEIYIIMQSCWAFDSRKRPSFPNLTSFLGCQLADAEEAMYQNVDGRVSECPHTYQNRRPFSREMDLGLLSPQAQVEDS
The assay is described as follows: HotSpot radiometric kinase assay (Reaction Biology), FLT3. The conditions noted are these: 4 nM kinase, substrate ABLtide 20 μM, 33P-ATP, 120 minutes at room temperature. As to the method:
(§1) The compounds were profiled in the HotSpot radiometric assays (Reaction Biology).
(§2) Briefly, • 1. Substrate indicated in Table 1 was dissolved in freshly prepared reaction buffer (20 mM HEPES (pH 7.5), 10 mM MgCl2, 1 mM EGTA, 0.01% Brij35, 0.02 mg/ml BSA, 0.1 mM Na3VO4, 2 mM DTT, 1% DMSO) at the concentration indicated in Table 1. • 2. Corresponding kinase (concentration indicated in Table 1) was added and the mixture was gently mixed. • 3. Tested compound dissolved in DMSO was added into the kinase reaction mixture. • 4. ^33P-ATP (specific activity 0.01 μCi/μL final) was added into the reaction mixture to initiate the reaction. • 5. The kinase reaction was incubated for 120 minutes at room temperature. • 6. Reaction mixture was spotted onto P81 ion exchange paper (Whatman K 3698-915). • 7. The filters were extensively washed with 0.754 phosphoric acid. • 7. The radioactive phosphorylated substrate remaining on the filter paper was measured.
(§3) Kinase activity data were expressed as the percent remaining kinase activity in tested samples compared to the vehicle (DMSO) reactions. IC50 values and curve fits were obtained using Prism4 Software (GraphPad).
(§4) Table 2 summarizes the inhibitory activities of indicated compounds tested in the in vitro kinase assays described above.

The next assay deals with T2, DDR1 (Homo sapiens, UniProt Q08345).
T2 construct: purchased Reaction Biology
T2 sequence (Q08345 19-913): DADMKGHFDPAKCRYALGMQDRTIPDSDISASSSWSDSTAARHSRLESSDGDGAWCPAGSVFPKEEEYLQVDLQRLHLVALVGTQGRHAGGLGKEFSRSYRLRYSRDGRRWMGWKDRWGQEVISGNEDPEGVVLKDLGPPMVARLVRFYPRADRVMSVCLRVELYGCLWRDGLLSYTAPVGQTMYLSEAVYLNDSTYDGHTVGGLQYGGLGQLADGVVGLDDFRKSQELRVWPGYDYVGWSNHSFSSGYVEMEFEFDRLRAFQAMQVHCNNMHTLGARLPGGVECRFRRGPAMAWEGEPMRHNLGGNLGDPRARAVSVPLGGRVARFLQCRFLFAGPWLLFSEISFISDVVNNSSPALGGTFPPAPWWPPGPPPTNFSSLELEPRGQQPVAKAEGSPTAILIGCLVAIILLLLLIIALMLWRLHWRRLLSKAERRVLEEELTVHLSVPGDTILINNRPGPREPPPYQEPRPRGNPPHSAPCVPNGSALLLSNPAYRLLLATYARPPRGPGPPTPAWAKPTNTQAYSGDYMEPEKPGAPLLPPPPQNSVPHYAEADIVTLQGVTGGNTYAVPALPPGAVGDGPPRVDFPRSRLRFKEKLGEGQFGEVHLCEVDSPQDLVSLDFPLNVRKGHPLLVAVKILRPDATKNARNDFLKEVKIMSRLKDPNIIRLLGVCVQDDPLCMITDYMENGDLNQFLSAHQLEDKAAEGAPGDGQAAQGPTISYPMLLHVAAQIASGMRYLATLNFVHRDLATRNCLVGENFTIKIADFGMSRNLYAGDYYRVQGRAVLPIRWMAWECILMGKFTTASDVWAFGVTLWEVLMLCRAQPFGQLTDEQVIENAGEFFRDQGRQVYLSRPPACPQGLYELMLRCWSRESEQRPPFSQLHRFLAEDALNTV
Nature of the assay: HotSpot radiometric kinase assay (Reaction Biology), DDR1. The following applies: 200 nM kinase, substrate IRS1tide 20 μM, 33P-ATP, 120 minutes at room temperature. As to the method: as §1
as §2, with “Reaction mixture was spotted onto P81 ion exchange paper (Whatman K 3698-915). • 7. The filters were extensively washed with 0.754 phosphoric acid. • 7.” left out
as §3

Another assay deals with T3, KHS/MAP4K5 (Homo sapiens, UniProt Q9Y4K4).
T3 construct: purchased Reaction Biology
T3 sequence (Q9Y4K4 whole entry): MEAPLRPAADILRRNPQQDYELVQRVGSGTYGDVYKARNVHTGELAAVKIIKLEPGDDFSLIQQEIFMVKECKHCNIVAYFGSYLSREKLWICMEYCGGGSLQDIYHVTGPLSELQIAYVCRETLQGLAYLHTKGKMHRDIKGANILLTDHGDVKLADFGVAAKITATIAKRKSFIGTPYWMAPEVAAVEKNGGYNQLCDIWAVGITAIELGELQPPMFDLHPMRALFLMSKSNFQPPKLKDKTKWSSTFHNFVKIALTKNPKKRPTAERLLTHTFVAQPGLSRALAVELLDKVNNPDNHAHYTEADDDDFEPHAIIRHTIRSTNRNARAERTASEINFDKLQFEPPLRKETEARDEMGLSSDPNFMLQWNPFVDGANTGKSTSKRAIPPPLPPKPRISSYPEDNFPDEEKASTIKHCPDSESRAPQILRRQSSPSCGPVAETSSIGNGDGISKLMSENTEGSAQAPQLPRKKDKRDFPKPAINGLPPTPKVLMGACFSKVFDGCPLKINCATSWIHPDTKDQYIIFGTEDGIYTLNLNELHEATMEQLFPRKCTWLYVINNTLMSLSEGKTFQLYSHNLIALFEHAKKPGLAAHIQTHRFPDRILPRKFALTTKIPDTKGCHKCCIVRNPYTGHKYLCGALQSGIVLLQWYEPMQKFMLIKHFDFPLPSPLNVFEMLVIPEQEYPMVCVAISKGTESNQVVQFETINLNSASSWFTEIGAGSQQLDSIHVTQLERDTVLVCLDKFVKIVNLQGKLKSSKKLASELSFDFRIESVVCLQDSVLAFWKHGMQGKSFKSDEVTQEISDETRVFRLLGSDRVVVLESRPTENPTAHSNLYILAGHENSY
The assay is described as follows: HotSpot radiometric kinase assay (Reaction Biology), KHS/MAP4K5. The conditions noted are these: 1.5 nM kinase, substrate MBP 20 μM, 33P-ATP, 120 minutes at room temperature. As to the method:
as §1, §2, §3, §4

Molecules are shown by their SMILES.

One may read the IC50 as the concentration that gives 50% inhibition. `CSc1cccc(-c2coc3cc(-c4ccc(N5CCN(C)CC5)cc4)cnc23)c1` [Preparative Example 147, 6-(4-(4-methylpiperazin-1-yl)phenyl)-3-(3-(methylthio)phenyl)furo[3,2-b]pyridine]: the IC50 on FLT3 was determined as 0.203 µM; against DDR1, 0.236 µM.

Take `CCNC(=O)Cc1cccc(-c2coc3cc(-c4ccc(N5CCNCC5)cc4)cnc23)c1` [Preparative Example 152, N-ethyl-2-(3-(6-(4-(piperazin-1-yl)phenyl)furo[3,2-b]pyridin-3-yl)phenyl)acetamide]: the results for the half-maximal inhibitory concentration (IC50) against FLT3 and on DDR1 were 0.024 µM and 0.073 µM, respectively.

As to `CN1CCN(c2ccc(-c3cnc4c(-c5cccc(CC(N)=O)c5)coc4c3)cc2)CC1` [Preparative Example 154, 2-(3-(6-(4-(4-methylpiperazin-1-yl)phenyl)furo[3,2-b]pyridin-3-yl)phenyl)acetamide], the IC50 stood at 0.022 µM at FLT3 and 0.157 µM at DDR1.

For the compound `CC(=O)c1cc(-c2coc3cc(-c4ccc(N5CCN(C)CC5)cc4)cnc23)ccn1` [Preparative Example 156, 1-(4-(6-(4-(4-methylpiperazin-1-yl)phenyl)furo[3,2-b]pyridin-3-yl)pyridin-2-yl)ethan-1-one], the results for the IC50 against FLT3 and against DDR1 were 0.046 µM and 0.734 µM, respectively.

In the case of `c1ccc(-c2ccccc2-c2coc3cc(-c4ccc(N5CCNCC5)cc4)cnc23)cc1` [Preparative Example 161, 3-([1,1′-biphenyl]-2-yl)-6-(4-(piperazin-1-yl)phenyl)furo[3,2-b]pyridine], the 50% inhibitory concentration (IC50) against FLT3 is 0.832 µM; at DDR1, 0.209 µM.

For the compound `CCCCOC(=O)c1cccc(-c2coc3cc(-c4ccc(N5CCNCC5)cc4)cnc23)c1` [Preparative Example 167, butyl 3-(6-(4-(piperazin-1-yl)phenyl)furo[3,2-b]pyridin-3-yl)benzoate], the IC50 on FLT3 is 0.037 µM; against DDR1, 0.305 µM.

With `c1cc(-c2coc3cc(-c4ccc(OCCN5CCCCC5)cc4)cnc23)ccn1` [Preparative Example 171, 6-(4-(2-(piperidin-1-yl)ethoxy)phenyl)-3-(pyridin-4-yl)furo[3,2-b]pyridine], the half-maximal inhibitory concentration (IC50) came out at 0.021 µM against FLT3 and 0.365 µM against DDR1.

In the case of `CN1CCN(c2ccc(-c3cnc4c(-c5ccccc5)coc4c3)cc2)CC1` [Preparative Example 172, 6-(4-(4-methylpiperazin-1-yl)phenyl)-3-phenylfuro[3,2-b]pyridine], the IC50 was 0.033 µM against FLT3 and 0.141 µM against DDR1.

For `CN1CCN(c2ccc(-c3cnc4c(-c5cccc(S(C)(=O)=O)c5)coc4c3)cc2)CC1` [Preparative Example 175, 6-(4-(4-methylpiperazin-1-yl)phenyl)-3-(3-(methylsulfonyl)phenyl)furo[3,2-b]pyridine], the IC50 came to 0.225 µM against FLT3 and 0.29 µM against DDR1.

For the compound `CN1CCN(c2ccc(-c3cnc4c(-c5cccc([S+](C)[O-])c5)coc4c3)cc2)CC1` (centres unmarked) [Preparative Example 181, 6-(4-(4-methylpiperazin-1-yl)phenyl)-3-(3-(methylsulfinyl)phenyl)furo[3,2-b]pyridine], the IC50 against FLT3 was 0.099 µM; on DDR1 it was 0.284 µM.

Take `CN1CCN(c2ccc(-c3cnc4c(Cc5ccccc5)coc4c3)cc2)CC1` [Preparative Example 186, 3-benzyl-6-(4-(4-methylpiperazin-1-yl)phenyl)furo[3,2-b]pyridine]: the IC50 amounted to 0.373 µM on FLT3 and 0.62 µM against DDR1.

For the compound `Cc1c(-c2ccc(N3CCN(C)CC3)cc2)cnc2c(-c3ccccc3)coc12` [Preparative Example 188, 7-methyl-6-(4-(4-methylpiperazin-1-yl)phenyl)-3-phenylfuro[3,2-b]pyridine], the IC50 was 0.147 µM against FLT3 and 0.186 µM against DDR1.

`Cc1oc2cc(-c3ccc(N4CCN(C)CC4)cc3)cnc2c1-c1ccccc1` [Preparative Example 196, 1-methyl-4-(4-{2-methyl-3-phenylfuro[3,2-b]pyridin-6-yl}phenyl)piperazine]: the 50% inhibitory concentration (IC50) came to 0.096 µM at FLT3 and 0.148 µM against DDR1.

For `CCCc1oc2cc(-c3ccc(N4CCN(C)CC4)cc3)cnc2c1-c1ccccc1` [Preparative Example 200, 1-methyl-4-(4-{3-phenyl-2-propylfuro[3,2-b]pyridin-6-yl}phenyl)piperazine], the 50% inhibitory concentration (IC50) is 0.362 µM at FLT3 and 0.079 µM at DDR1.

In the case of `Cc1nn(C)cc1-c1coc2cc(-c3ccc(N4CCN(C)CC4)cc3)cnc12` [Preparative Example 216, 1-{4-[3-(1,3-dimethyl-1H-pyrazol-4-yl)furo[3,2-b]pyridin-6-yl]phenyl}-4-methylpiperazine], the IC50 on FLT3 stood at 0.224 µM; at DDR1, 0.367 µM.

For the compound `CN1CCN(c2ccc(-c3cnc4c(-c5ccccc5)c(-c5ccncc5)oc4c3)cc2)CC1` [Preparative Example 223, 1-methyl-4-{4-[3-phenyl-2-(pyridin-4-yl)furo[3,2-b]pyridin-6-yl]phenyl}piperazine], the IC50 at FLT3 is 0.269 µM; against DDR1 it was 0.07 µM.

For the compound `CN1CCN(c2ccc(-c3cnc4c(-n5ccnc5)coc4c3)cc2)CC1` [Preparative Example 231, 1-{4-[3-(1H-imidazol-1-yl)furo[3,2-b]pyridin-6-yl]phenyl}-4-methylpiperazine], the values for the concentration for half-maximal inhibition (IC50) against FLT3 and on DDR1 were 0.101 µM and 0.213 µM, respectively.

Regarding `COC(=O)c1cccc(-c2coc3cc(-c4ccc(N5CCN(C)CC5)cc4)cnc23)c1` [Preparative Example 237, methyl 3-{6-[4-(4-methylpiperazin-1-yl)phenyl]furo[3,2-b]pyridin-3-yl}benzoate], the IC50 against FLT3 is 0.066 µM; against DDR1 it was 0.486 µM.

As to `CONC(=O)c1cccc(-c2coc3cc(-c4ccc(N5CCN(C)CC5)cc4)cnc23)c1` [Preparative Example 238, N-methoxy-3-{6-[4-(4-methylpiperazin-1-yl)phenyl]furo[3,2-b]pyridin-3-yl}benzamide], the IC50 on FLT3 worked out at 0.022 µM; against DDR1 it was 0.077 µM.

Take `CN1CCN(c2ccc(-c3cnc4c(-c5ccc(NC(=O)N(C)C)cc5)coc4c3)cc2)CC1` [Preparative Example 253, 3,3-dimethyl-1-(4-{6-[4-(4-methylpiperazin-1-yl)phenyl]furo[3,2-b]pyridin-3-yl}phenyl)urea]: the IC50 against FLT3 was 0.377 µM; at KHS/MAP4K5 it was 0.181 µM.

On to `COc1ccc(-c2coc3cc(-c4ccc(N5CCN(C)CC5)cc4)cnc23)cc1` [Preparative Example 255, 3-(4-methoxyphenyl)-6-(4-(4-methylpiperazin-1-yl)phenyl)furo[3,2-b]pyridine], for which the IC50 was 0.141 µM against FLT3 and 0.191 µM at DDR1.

Turning to `CN1CCN(c2ccc(-c3cnc4c(-c5ccc(C#N)cc5)coc4c3)cc2)CC1` [Preparative Example 257, 4-(6-(4-(4-methylpiperazin-1-yl)phenyl)furo[3,2-b]pyridin-3-yl)benzonitrile], the IC50 was found to be 0.028 µM against FLT3 and 0.2 µM against DDR1.
